# Source: patent US20130164249A1, “COMPOSITIONS AND METHODS FOR INHIBITING VIRAL AND BACTERIAL ACTIVITY” (priority 2007, published 2013)
# What was measured:
# [1] = SPR reference surface (nonfunctionalized dextran); assay type: binding; details: pH 7.5, raw SPR data
# Method: (§1) Two commercially available functionalized phenylboronic acids (Frontier Scientific, Logan Utah) were screened to compare the effect of electron withdrawing substituents (2,5-difluorophenylboronic acid, 1, FIG. 3a), versus a ortho-hydroxymethyl substituent (2-hydroxymethylphenylboronic acid, 2, FIG. 3a) prepared at 50 mM concentrations in 25 mM buffers at the appropriate pH (pH 5.5 acetate buffer, pH 7.5 phosphate buffer, and pH 9.5 carbonate buffer). HIV-1 CN54 gp120 with a molecular weight of 130 kDa was obtained from the NIH AIDS Research and Reference Reagent Program (Division of AIDS, NIH). CN54 gp120 was attached to a CM4 sensor chip using standard amine coupling chemistry with a density of 10,000 RU. Briefly, using HBS-P as the running buffer, the carboxymethyl dextran surface of a surface Plasmon resonance (SPR) chip (CM4 chip, Biacore) was activated with an injection of a 1:1 ratio of 0.4M 1-ethyl-3-(3-dimethylaminopropyl)carbodiimide hydrochloride (EDC)/0.1M N-hydroxysuccinimide (NHS). CN54 gp120 in 10 mM sodium acetate (pH 5.5) was then coupled to the surface. The remaining activated groups were then blocked by an injection of 1M ethanolamine (pH 8.5).
# [2] = biological target: HIV-1 CN54 gp120; assay: Surface plasmon resonance screening of phenylboronic acid ligands with HIV gp120; assay type: binding; details: SPR, 25° C., 1:1 interaction model, pH 5.5 / 7.5 / 9.5 buffers
# Method: Two commercially available functionalized phenylboronic acids (Frontier Scientific, Logan Utah) were screened to compare the effect of electron withdrawing substituents (2,5-difluorophenylboronic acid, 1, FIG. 3a), versus a ortho-hydroxymethyl substituent (2-hydroxymethylphenylboronic acid, 2, FIG. 3a) prepared at 50 mM concentrations in 25 mM buffers at the appropriate pH (pH 5.5 acetate buffer, pH 7.5 phosphate buffer, and pH 9.5 carbonate buffer). HIV-1 CN54 gp120 with a molecular weight of 130 kDa was obtained from the NIH AIDS Research and Reference Reagent Program (Division of AIDS, NIH). CN54 gp120 was attached to a CM4 sensor chip using standard amine coupling chemistry with a density of 10,000 RU. […] Affinity for the gp120 functionalized surface was determined by comparing raw data to three reference cells: two of the unactivated CM4 surfaces, and an activated CM4 surface capped completely by ethanolamine. […] The association and dissociation phases were monitored for 1-3 min and 3-10 min respectively. Data was fitted to a 1:1 interaction model and the apparent affinity, KD, was determined using Scrubber II software. […]
# Binding affinities in the presence of the seminal component fructose were also analyzed. […]
# [3] = Solubility of ligand in buffer for SPR; assay type: physicochemical; details: pH 5.5
# Method: as §1
Compound,binding to nonfunctionalized dextran surface [1],"apparent affinity, KD, to gp120 functionalized surface [2]",solubility [3]
"OB(O)c1cc(F)ccc1F [compound 1, 2,5-difluorophenylboronic acid]",no binding,,
"OCc1ccccc1B(O)O [compound 2, 2-hydroxymethylphenylboronic acid]",,slightly higher affinity compared to the more acidic 1,not soluble
